Source: ChEMBL document CHEMBL3507680, “University of Dundee, Gates Library screen for HepG2 cell viability”
Values joined by “and” are separate entries in the source; they are usually repeats but may differ in a detail not shown here. Equal values may be shown once.

Assay: Human HepG2 cell viability assay in 384 well format
Assay type: toxicity, cell-based
Design: dose 125 nL, time 70.5 hour; cytotoxicity at 70.5 h: concentration not given beside the values
Conditions: HepG2 cells, read-out: Inhibition

Compound | cytotoxicity at 70.5 h
Cc1cnc(C(=O)N2CCCC(n3ccnc3C)C2)cn1 (stereo not given) | 61.9%
O=C(Cn1cnc2ccccc2c1=O)Nc1cc(C2CC2)n[nH]1 | 107%
CNc1cc(C)nc(NCc2cc(C)cc3c(C)c(C)[nH]c23)n1 | 67.2%
CC(C)(C)c1cn2c(n1)C(CNCc1ccccn1)CCC2 (stereo not given) | 70.8%
COCc1cc(N(C)Cc2c(C)nn(C)c2C)n2nccc2n1 | 64.9%
CCN(CC)c1nc(Nc2cccc(C(C)O)c2)nc2ccccc12 (stereo not given) | 65%
COc1ccc(OCCN2CCC(N3CCNC3=O)CC2)cc1 | 80.5%
COc1cc(-c2n[nH]c(CC#N)n2)cc(OC)c1OC | 51.6%
Cn1nccc1CCC(=O)N1CCOC(c2cnccn2)C1 (stereo not given) | -12.6%
O=C(O)c1cccnc1CN1CCCCC1CCc1cccc(O)c1 (stereo not given) | 9.13%
CN1CCN(S(C)(=O)=O)c2cc(F)ccc21 | -14.8%
CCC(NCc1ncc[nH]1)c1nc(C(F)(F)F)cs1 (stereo not given) | -4.3%
Cc1ccc(OCCN(C)C(=O)CCCC(N)=O)c(C)c1 | -5.93%
COc1ccc(CN2CCOC[C@H](OCC(=O)N(C)C)C2)cc1 | -1.39%
CCOCC1CCN(C(=O)C(c2c(F)cccc2F)N(C)C)CC1 (stereo not given) | 0.534%
COc1ccccc1C(C)(C)NCc1ccc(C)o1 | -5.83%
CCN(Cc1ccc(Cl)s1)S(=O)(=O)CC | 0.4%
O=C(CNC1(CCO)CCOCC1)Nc1ccc(F)cc1F | 10.9%
CCOc1ncccc1CNC(=O)NC(C)Cn1cccn1 (stereo not given) | 25.9%
CCN1C(=O)CC[C@]12CC[C@@H](NC(=O)c1cnccn1)CC2 | 12.9%
CC(=O)N1CCN(C(=O)CN2CCc3c(ncn3C3CC3)C2)CC1 | 6.66%
COC(=O)N1CC(C)=C(C)CN1C(=O)Nc1ccc(Cl)c(Cl)c1 | 4.31%
CC(C)OCc1nn(C)c2c1CN(Cc1cccs1)CC2 | -2.74%
COc1ccc(NC(=O)NCC(O)c2ccc(F)cc2F)c(OC)c1 (stereo not given) | 2.76%
CC(=O)N1CCO[C@@H]2CN(Cc3ccccc3F)C[C@@H]2C1 | -5.88%
Cc1cnn(CC2CCCCN2C(=O)Cc2c(C)noc2Cl)c1 (stereo not given) | 24.1%

Compound | cytotoxicity at 70.5 h
COCc1nc2n(n1)CCCC2Nc1nc(C(C)C)ns1 (stereo not given) | -6.22%
O=C(Nc1cccnc1-n1cncn1)N(C1CCCC1)C1CC1 | -7.6%
CC(NC(=O)N(C)Cc1ccsc1)c1ccc2c(c1)CCC(=O)N2 (stereo not given) | -3.94%
CC(C)CN1CCN(C(=O)CCn2cccn2)CC1 | -1.87%
CCOC(=O)[C@@H]1[C@@H](OC)C(=O)N(C)C12CCN(C(=O)C(CC)CC)CC2 | -7.55%
COC(=O)N1CCCCC1C(=O)N1CCC(c2ccncc2)CC1 (stereo not given) | -3.09%
C[C@@H]1CN(C(=O)CCN2CCOCC2)CC[C@]1(C)O | -2.33%
CCC1CN(C(=O)c2cccc(OCc3cscn3)c2)CCO1 (stereo not given) | -5.57%
CN(Cc1ccccc1)CC1CC2(CO1)CN(Cc1nccs1)C2 (stereo not given) | -6.93%
O=C(C1CC1)N1C[C@H]2CCCN(S(=O)(=O)c3ccc4c(c3)CCC4)[C@H]2C1 | 3.41%
OC(COc1ccccc1)CN1CCN(c2nccs2)CC1 (stereo not given) | 0.888%
O=C(Cc1cnn(-c2ccccc2)n1)NC(C1CC1)C1CC1 | 0.511%
CCCc1nc(CN2CCCC2Cn2cncn2)cs1 (stereo not given) | 17.1%
CCn1ncc(CN2CCCC(n3c(=O)oc4ccccc43)C2)c1C (stereo not given) | -3.68%
Cc1ccc(OCC(=O)NC2(C#N)CCSCC2)cc1C | -10.6%
Cn1ccc(NCc2cc3cc(F)ccc3o2)n1 | -4.66%
CC(C)n1cnnc1CN(C)Cc1ccoc1 | -2.84%
O=C(N[C@H]1CC[C@H](O)CC1)c1ccc2nc(-c3ccccc3)cn2c1 | -7.18%
Cc1cccc2c1cnn2CCCNC(=O)c1cnn(C)c1 | -2.01%
CCn1nc(C)c(C(=O)N2CCC(Nc3ccc(C)nn3)CC2)c1C | -106%
Cc1csc(N2CCN(C(=O)Cc3ccc(C)s3)CC2)n1 | 3.83%
CC1N(c2cnn(C)c2)C(=O)COC12CCN(Cc1ccoc1)CC2 (stereo not given) | 2.62%
CCN(CC)S(=O)(=O)c1ccc(C(=O)NC(C)(C#N)C2CC2)cc1 (stereo not given) | 19.1%
Cc1nc([C@H]2C[C@@H]3CCN(Cc4ccc5c(c4)OCO5)C[C@H]3O2)no1 | -12.3%
Cc1cnc(CCNC(=O)NCCOc2ncccc2Cl)s1 | -2.69%
CCc1nc(C)c(C(=O)NCCNC(=O)Cc2cccc(F)c2)s1 | -6.24%

Compound | cytotoxicity at 70.5 h
CC(=O)N1CCCC1c1nccnc1Nc1ncccn1 (stereo not given) | 15.9%
O=C(Nc1nccs1)NC1CCOc2ccccc21 (stereo not given) | -1.72%
COCC(=O)N1CCC2(CC1)COCCN2CCN(C)C | -19.5%
CC(C)(C)c1nc(CN2CCN(C(=O)c3cnccn3)CC2)cs1 | -1.47%
Fc1ccc2c(C3=CCN(Cc4nnc(C5CCC5)o4)CC3)c[nH]c2c1 | 2.23%
Cn1c(C(F)(F)F)nn(CCNC(=O)CSCc2ccccc2)c1=O | 0.995%
COc1ccc(C(=O)N2C[C@@H](C(=O)O)[C@H](c3cccc(F)c3)C2)c(O)c1 | 5.73%
OCCCN1CCOC(c2ccc(F)cc2)C1 (stereo not given) | -6.31%
Cc1ccccc1S(=O)(=O)N1CCC(c2[nH]ncc2C)C1 (stereo not given) | -8.88%
CCCOc1ccc(CCC(=O)Nc2nonc2C)cc1 | -4.36%
CNC(=O)[C@@H]1CC[C@@H]2[C@@H](CCN2C(=O)N(C)C)O1 | -0.00257%
CC(Sc1nnc(C2CC2)n1CC(N)=O)c1ccc(F)cc1F (stereo not given) | -4.59%
Oc1nc(N2CCCC2)nc2c1CCN(Cc1cccnc1)CC2 | -5.83%
CCn1ncc(CN2CCC(c3ncc(Cl)cc3S(C)(=O)=O)CC2)c1C | -8.43%
CC(C)c1cc(C(=O)N2CCN(Cc3ccco3)CC2)n[nH]1 | 32.7%
Cc1ccccc1CNC(C)c1ccc(OCC(=O)NC2CC2)cc1 (stereo not given) | 13.8%
COc1cccc(C2CCN2C(=O)c2cc(C(C)C)on2)c1 (stereo not given) | -0.704%
Cc1oc(-c2ccccc2)nc1CN1CCC(c2ccnn2C)CC1 | -78.8%
O=C(c1cocn1)N1C[C@@H]2COC[C@]2(COc2cccnc2)C1 | -4.92%
Cc1cnc(N2C[C@@H]3CN(C4CCOC4)CCC[C@]3(C(=O)O)C2)nc1 (stereo not given in full) | -7.9%
COc1cc(N2CC[C@H](O)[C@@H]2Cc2cnn(C)c2)ncn1 | -13.3%
Cn1cnc(S(=O)(=O)NCC2(O)CCc3ccccc32)c1 (stereo not given) | 9.61%
COCCn1ccc2c(C(=O)Nc3nc4c(s3)CCC4)cccc21 | -1.37%
CNC(=O)C1CCCCN1C(=O)c1sc(-c2ccc(C)o2)nc1C (stereo not given) | 3.27%
CCOc1cc(C)nc(N2CCN(C(=O)c3cn[nH]c3CC)CC2)n1 | -3.76%
O=S(=O)(c1cccs1)N1Cc2nc(COCC3CC3)oc2C1 | -5.06%

Compound | cytotoxicity at 70.5 h
Cc1ncsc1-c1nc(CC2CCN(C)CC2)nn1Cc1ccccc1 | 8.01%
CC(C)OCc1ncn2c1CN(Cc1cccs1)CCC2 | 1.83%
COc1cccc(CN(C)c2ncc(C(N)=O)cc2Cl)c1 | -4.58%
FC(F)CNc1cnc(C2CCNCC2)cn1 | -5.8%
Cc1ccc(-c2noc(C(O)CC(C)C)n2)nn1 (stereo not given) | -3.31%
CC(=O)N1CCN(Cc2ccncc2)CC2(CC(=O)N(C)C2)C1 (stereo not given) | -7.88%
COc1cc(CN2CC[C@H](NC(C)=O)[C@@H](O)CC2)ccc1F | 12.1%
Cc1cccc(OCC2CCCN(C(=O)CCn3ccccc3=O)C2)c1 (stereo not given) | -11.2%
Cc1nonc1OCCNc1ncnc2sc3c(c12)CCNC3 | -3.76%
O=C(c1cn(-c2cc(N3CCSCC3)ncn2)cn1)N1CCOCC1 | 23.9%
CN(Cc1ccon1)C(=O)C1CC(=O)N(Cc2cccnc2)C1 (stereo not given) | -7.61%
Cc1ccc(NC(=O)Cn2ncc(SCC(N)=O)c(Cl)c2=O)cc1 | -7.72%
COc1ccc2nc(C)c(C(=O)NCCN3CCS(=O)(=O)CC3)cc2c1 | -1.47%
CCCS(=O)(=O)N1CCC(NC(=O)c2cc3ccccc3s2)CC1 | -6.56%
Cc1nc(N2CCCC2)nc(C)c1NC(=O)c1ccco1 | -1.46%
CC(C)(NS(C)(=O)=O)c1nc(-c2cccc(Cl)c2)no1 | -4.4%
CCCc1nc(N2CCCN(c3ccncc3)CC2)c2cnn(C)c2n1 | -11.6%
CCc1ccc(O)c(C(=O)N2CCCN(CC(=O)N(CC)CC)CC2)c1 | -0.346%
CN(C)CC1CN(Cc2cccc(C(=O)N(C)C)c2)CCO1 (stereo not given) | -1.2%
O=C(C1CCC1)N1CCO[C@@H]2CNC[C@@H]21 | 12.9%
CC(C)N(C)CC(=O)NCCc1nc(C(F)(F)F)cs1 | -5.26%
COC(=O)c1cccn1C1CCN(CCN2C(=O)CCC2=O)CC1 | -5.66%
Cc1cnc(CN2CCOC(Cn3nc(C)nc3C)C2)cn1 (stereo not given) | 18.6%
O=C(CSc1ccccc1Cl)NS(=O)(=O)c1ccc2c(c1)OCCO2 | -4.84%
CC(C)S(=O)(=O)C(C)C(=O)Nc1ccc2oc(C3CC3)nc2c1 (stereo not given) | -2.28%

Assay: Human HepG2 cell viability dose-response assay
Assay type: toxicity, cell-based
Conditions: not given

Compound | BOTTOM | HILLSLOPE | TOP | pXC50
Cc1cnc(C(=O)N2CCCC(n3ccnc3C)C2)cn1 (stereo not given) | 0 | 0 | 0 | < 4.53
O=C(Cn1cnc2ccccc2c1=O)Nc1cc(C2CC2)n[nH]1 | -7.289 and -9.306 | 2.407 and 2.226 | 101 and 100.4 | 6.137 and 6.176
CNc1cc(C)nc(NCc2cc(C)cc3c(C)c(C)[nH]c23)n1 | -6.522 and -8.24 | 2.624 and 2.705 | 104.6 and 104.5 | 5.463 and 5.453
CC(C)(C)c1cn2c(n1)C(CNCc1ccccn1)CCC2 (stereo not given) | -8.279 and -9.133 | 1.336 and 1.545 | 100 and 90.93 | 5.194 and 5.33
COCc1cc(N(C)Cc2c(C)nn(C)c2C)n2nccc2n1 | 0 | 0 | 0 | < 4.53
CCN(CC)c1nc(Nc2cccc(C(C)O)c2)nc2ccccc12 (stereo not given) | -6.556 and -9.604 | 3.369 and 3.239 | 95.36 and 94.66 | 5.073 and 5.085
COc1ccc(OCCN2CCC(N3CCNC3=O)CC2)cc1 | – | 1.006 and 1.131 | 99.89 and 100 | 4.882 and 4.993
